From publication PMC5218480 (PLoS ONE, 2017) come the findings set out here.

In this experiment the test system is MV-4-11 cells. As to the kind of experiment: Gene expression microarray analysis (Affymetrix PrimeView) and GSEA. Type of experiment: cell-based, human. Further details: RFU PODN (11730768_x_at) / Fold change /veh PODN (11730768_x_at) / RFU LINC00158 (11744669_a_at) / Fold change /veh LINC00158 (11744669_a_at) / RFU DUSP10 (11751237_a_at) / Fold change /veh DUSP10 (11751237_a_at) / RFU ID3 (11757404_x_at) / Fold change /veh ID3 (11757404_x_at) / RFU PLEKHG5 (11737974_s_at) / Fold change /veh PLEKHG5 (11737974_s_at) / RFU LRRC4B (11730491_at) / Fold change /veh LRRC4B (11730491_at) / RFU GIMAP4 (11747438_a_at) / Fold change /veh GIMAP4 (11747438_a_at) / RFU KRT8 (11758183_x_at) / Fold change /veh KRT8 (11758183_x_at) / RFU CNN1 (11734310_a_at) / Fold change /veh CNN1 (11734310_a_at) / RFU VPS37D (11726825_at) / Fold change /veh VPS37D (11726825_at) / RFU C10orf10 (11716522_x_at) / Fold change /veh C10orf10 (11716522_x_at) / RFU KIR2DL2 /// KIR2DL4 /// KIR2DL5A /// KIR2DL5B /// KIR2DS1 /// KIR2DS2 /// KIR2DS3 /// KIR2DS4 /// KIR3DL3 /// KIR3DL3 /// KIR3DS1 (11738374_at) / Fold change /veh KIR2DL2 /// KIR2DL4 /// KIR2DL5A /// KIR2DL5B /// KIR2DS1 /// KIR2DS2 /// KIR2DS3 /// KIR2DS4 /// KIR3DL3 /// KIR3DL3 /// KIR3DS1 (11738374_at) / RFU C1QL1 (11718748_at) / Fold change /veh C1QL1 (11718748_at) / RFU TMPRSS4 (11747572_a_at) / Fold change /veh TMPRSS4 (11747572_a_at) / RFU HAMP (11756126_x_at) / Fold change /veh HAMP (11756126_x_at) / RFU RNFT2 (11725882_a_at) / Fold change /veh RNFT2 (11725882_a_at) / RFU NR4A2 (11747474_a_at) / Fold change /veh NR4A2 (11747474_a_at) / RFU ABCC12 (11746883_a_at) / Fold change /veh ABCC12 (11746883_a_at) / RFU TMEM136 (11760407_x_at) / Fold change /veh TMEM136 (11760407_x_at) / RFU CLDN22 /// WWC2 (11732394_at) / Fold change /veh CLDN22 /// WWC2 (11732394_at) / RFU HLA-DPB1 (11760878_x_at) / Fold change /veh HLA-DPB1 (11760878_x_at) / RFU SPINT1 (11716480_a_at) / Fold change /veh SPINT1 (11716480_a_at) / RFU GAP43 (11754022_s_at) / Fold change /veh GAP43 (11754022_s_at) / RFU A4GNT (11735810_at) / Fold change /veh A4GNT (11735810_at) / RFU PRB3 (11715151_x_at) / Fold change /veh PRB3 (11715151_x_at) / RFU TUBB4B (11761932_at) / Fold change /veh TUBB4B (11761932_at) / RFU CAPN14 (11732068_a_at) / Fold change /veh CAPN14 (11732068_a_at) / RFU TMCC2 (11721928_a_at) / Fold change /veh TMCC2 (11721928_a_at) / RFU IRGQ (11745062_a_at) / Fold change /veh IRGQ (11745062_a_at) / RFU FAM174B (11720279_a_at) / Fold change /veh FAM174B (11720279_a_at) / RFU TMPRSS4 (11748680_a_at) / Fold change /veh TMPRSS4 (11748680_a_at) / RFU FAM212B (11763350_a_at) / Fold change /veh FAM212B (11763350_a_at) / RFU PLEKHG5 (11743358_a_at) / Fold change /veh PLEKHG5 (11743358_a_at) / RFU ZSCAN30 (11745921_a_at) / Fold change /veh ZSCAN30 (11745921_a_at) / RFU CMKLR1 (11741424_a_at) / Fold change /veh CMKLR1 (11741424_a_at) / RFU LOC101060620 /// MAPK8IP1 (11723275_at) / Fold change /veh LOC101060620 /// MAPK8IP1 (11723275_at) / RFU SPTSSB (11747773_x_at) / Fold change /veh SPTSSB (11747773_x_at) / RFU PRSS12 (11739890_at) / Fold change /veh PRSS12 (11739890_at) / RFU BIN1 (11741810_x_at) / Fold change /veh BIN1 (11741810_x_at) / RFU WNT11 (11732464_a_at) / Fold change /veh WNT11 (11732464_a_at) / RFU C10orf10 (11716521_a_at) / Fold change /veh C10orf10 (11716521_a_at) / RFU C5orf56 (11738089_at) / Fold change /veh C5orf56 (11738089_at) / RFU CYB561 (11721691_x_at) / Fold change /veh CYB561 (11721691_x_at) / RFU ANKRD19P (11752326_a_at) / Fold change /veh ANKRD19P (11752326_a_at) / RFU OR2T12 /// OR2T33 /// OR2T8 (11738714_s_at) / Fold change /veh OR2T12 /// OR2T33 /// OR2T8 (11738714_s_at) / RFU VCAN (11748164_a_at) / Fold change /veh VCAN (11748164_a_at) / RFU JSRP1 (11732532_at) / Fold change /veh JSRP1 (11732532_at) / RFU KRTAP10-11 (11738290_x_at) / Fold change /veh KRTAP10-11 (11738290_x_at) / RFU MYO3A (11730013_a_at) / Fold change /veh MYO3A (11730013_a_at) / RFU EBF3 (11725865_a_at) / Fold change /veh EBF3 (11725865_a_at) / RFU CAMK2N1 (11719241_x_at) / Fold change /veh CAMK2N1 (11719241_x_at) / RFU C5orf56 (11738088_a_at) / Fold change /veh C5orf56 (11738088_a_at) / RFU OLFML3 (11715873_a_at) / Fold change /veh OLFML3 (11715873_a_at) / RFU LOC100653217 /// NTM (11731650_a_at) / Fold change /veh LOC100653217 /// NTM (11731650_a_at) / RFU MAPK11 (11762145_a_at) / Fold change /veh MAPK11 (11762145_a_at) / RFU FIZ1 (11724087_x_at) / Fold change /veh FIZ1 (11724087_x_at) / RFU OASL (11726364_x_at) / Fold change /veh OASL (11726364_x_at) / RFU SOX15 (11748057_x_at) / Fold change /veh SOX15 (11748057_x_at) / RFU CD79A (11719716_a_at) / Fold change /veh CD79A (11719716_a_at) / RFU HIST1H1D (11736915_at) / Fold change /veh HIST1H1D (11736915_at) / RFU CASKIN2 (11723855_a_at) / Fold change /veh CASKIN2 (11723855_a_at) / RFU LOC730098 (11760151_x_at) / Fold change /veh LOC730098 (11760151_x_at) / RFU OR4N2 (11742367_at) / Fold change /veh OR4N2 (11742367_at) / RFU PRRT2 (11749266_a_at) / Fold change /veh PRRT2 (11749266_a_at) / RFU SNX32 (11753110_a_at) / Fold change /veh SNX32 (11753110_a_at) / RFU CDHR5 (11726645_a_at) / Fold change /veh CDHR5 (11726645_a_at) / RFU RCAN1 (11760418_a_at) / Fold change /veh RCAN1 (11760418_a_at) / RFU FAM167A (11723789_a_at) / Fold change /veh FAM167A (11723789_a_at) / RFU FAM26E (11764081_at) / Fold change /veh FAM26E (11764081_at) / RFU ISYNA1 (11749810_s_at) / Fold change /veh ISYNA1 (11749810_s_at) / RFU ACY1 (11761880_at) / Fold change /veh ACY1 (11761880_at) / RFU 11764098_at / Fold change /veh 11764098_at / RFU SAMD14 (11745864_x_at) / Fold change /veh SAMD14 (11745864_x_at) / RFU NPB (11741838_a_at) / Fold change /veh NPB (11741838_a_at) / RFU TMPRSS6 (11731388_a_at) / Fold change /veh TMPRSS6 (11731388_a_at) / RFU KRTAP10-2 (11738614_at) / Fold change /veh KRTAP10-2 (11738614_at) / RFU ARHGAP8 /// PRR5-ARHGAP8 (11727945_x_at) / Fold change /veh ARHGAP8 /// PRR5-ARHGAP8 (11727945_x_at) / RFU KRTAP5-7 /// NADSYN1 (11734609_at) / Fold change /veh KRTAP5-7 /// NADSYN1 (11734609_at) / RFU RASL12 (11751679_a_at) / Fold change /veh RASL12 (11751679_a_at) / RFU CDKN2B (11736163_a_at) / Fold change /veh CDKN2B (11736163_a_at) / RFU PRF1 (11729649_at) / Fold change /veh PRF1 (11729649_at) / RFU, ZNF638 /// ZNF638-IT1 / Fold change vs veh, ZNF638 /// ZNF638-IT1 / RFU, PANK3 / Fold change vs veh, PANK3 / RFU, SH3YL1 / Fold change vs veh, SH3YL1 / RFU, ZEB2 / Fold change vs veh, ZEB2 / RFU, NRIP1 / Fold change vs veh, NRIP1 / RFU, PTTG1IP / Fold change vs veh, PTTG1IP / RFU, CAPN2 / Fold change vs veh, CAPN2 / RFU, MED14 / Fold change vs veh, MED14 / RFU, SNORA58 / Fold change vs veh, SNORA58 / RFU, C1orf63 / Fold change vs veh, C1orf63 / RFU, LRRFIP1 / Fold change vs veh, LRRFIP1 / RFU, NDUFAF7 / Fold change vs veh, NDUFAF7 / RFU, SLC12A2 / Fold change vs veh, SLC12A2 / RFU, IBTK / Fold change vs veh, IBTK / RFU, ESF1 / Fold change vs veh, ESF1 / Fold change vs veh, TMEM50B / RFU, TAOK1 / Fold change vs veh, TAOK1 / RFU, ACBD3 / Fold change vs veh, ACBD3 / RFU, TMA16 / Fold change vs veh, TMA16 / RFU, RWDD3 / Fold change vs veh, RWDD3 / RFU, BCAT1 / Fold change vs veh, BCAT1 / RFU, EDEM3 / Fold change vs veh, EDEM3 / RFU, TMEM33 / Fold change vs veh, TMEM33 / RFU, WDR75 / Fold change vs veh, WDR75 / RFU, AHCTF1 / Fold change vs veh, AHCTF1 / RFU, TFRC / Fold change vs veh, TFRC / RFU, ZDHHC17 / Fold change vs veh, ZDHHC17 / RFU, NOM1 / Fold change vs veh, NOM1 / RFU, ARL8B / Fold change vs veh, ARL8B / RFU, ZBTB11 / Fold change vs veh, ZBTB11 / RFU, TAMM41 / Fold change vs veh, TAMM41 / RFU, KIAA1704 /// LOC100996395 / Fold change vs veh, KIAA1704 /// LOC100996395 / RFU, ING1 / Fold change vs veh, ING1 / RFU, TRMT61B / Fold change vs veh, TRMT61B / RFU, FUBP3 / Fold change vs veh, FUBP3 / RFU, TP53 / Fold change vs veh, TP53 / RFU, TNKS2 / Fold change vs veh, TNKS2 / RFU, ZFP14 / Fold change vs veh, ZFP14 / RFU, ACTR2 / Fold change vs veh, ACTR2 / RFU, PPP3R1 / Fold change vs veh, PPP3R1 / RFU, PIK3R1 / Fold change vs veh, PIK3R1 / RFU, HNRNPA1 / Fold change vs veh, HNRNPA1 / RFU, RNF170 / Fold change vs veh, RNF170 / RFU, ZNF28 / Fold change vs veh, ZNF28 / RFU, RNGTT / Fold change vs veh, RNGTT / RFU, OGT / Fold change vs veh, OGT / RFU, BRD1 / Fold change vs veh, BRD1 / RFU, MARS / Fold change vs veh, MARS / RFU, ZNF655 / Fold change vs veh, ZNF655 / RFU, FAHD1 / Fold change vs veh, FAHD1 / RFU, BDP1 / Fold change vs veh, BDP1 / RFU, LRRCC1 / Fold change vs veh, LRRCC1 / RFU, ARID1A / Fold change vs veh, ARID1A / RFU, ZNF146 / Fold change vs veh, ZNF146 / RFU, ZNF330 / Fold change vs veh, ZNF330 / RFU, GPN3 / Fold change vs veh, GPN3 / RFU, C9orf123 / Fold change vs veh, C9orf123 / RFU, N4BP2L2 / Fold change vs veh, N4BP2L2 / RFU, ARFIP1 / Fold change vs veh, ARFIP1 / RFU, FAM179B / Fold change vs veh, FAM179B / RFU, BCL10 / Fold change vs veh, BCL10 / RFU, UHRF1BP1L / Fold change vs veh, UHRF1BP1L / RFU, BET1 / Fold change vs veh, BET1 / RFU, CNOT2 / Fold change vs veh, CNOT2 / RFU, ZNF268 / Fold change vs veh, ZNF268 / Fold change vs veh, ZNF507 / RFU, DGCR2 / Fold change vs veh, DGCR2 / RFU, WDSUB1 / Fold change vs veh, WDSUB1 / Fold change vs veh, HSP90B1 /// MIR3652 / RFU, ADSS / Fold change vs veh, ADSS / RFU, GK / Fold change vs veh, GK / RFU, ZNF148 / Fold change vs veh, ZNF148 / RFU, TAF9 / Fold change vs veh, TAF9 / RFU, SLC1A5 / Fold change vs veh, SLC1A5 / RFU, SLMO2 / Fold change vs veh, SLMO2 / RFU, ABCC4 / Fold change vs veh, ABCC4 / RFU, LOC101060439 /// RAP1B / Fold change vs veh, LOC101060439 /// RAP1B / RFU, RFX7 / Fold change vs veh, RFX7 / RFU, GTPBP10 / Fold change vs veh, GTPBP10 / RFU, CNEP1R1 / Fold change vs veh, CNEP1R1 / RFU, BIVM-ERCC5 /// ERCC5 / Fold change vs veh, BIVM-ERCC5 /// ERCC5 / RFU, ILF3 / Fold change vs veh, ILF3 / RFU 11762660_at / Fold change /veh 11762660_at / RFU VCAN (11757783_s_at) / Fold change /veh VCAN (11757783_s_at) / RFU DDX43 (11728927_at) / Fold change /veh DDX43 (11728927_at) / RFU KRT8 (11758188_x_at) / Fold change /veh KRT8 (11758188_x_at) / RFU NKD1 (11759106_at) / Fold change /veh NKD1 (11759106_at) / RFU SRD5A1 (11742802_a_at) / Fold change /veh SRD5A1 (11742802_a_at) / RFU TPSAB1 /// TPSB2 (11721975_s_at) / Fold change /veh TPSAB1 /// TPSB2 (11721975_s_at) / RFU GSTM3 (11746129_a_at) / Fold change /veh GSTM3 (11746129_a_at) / RFU IL23R (11737362_x_at) / Fold change /veh IL23R (11737362_x_at) / RFU TMEM51 (11727254_a_at) / Fold change /veh TMEM51 (11727254_a_at) / RFU PIWIL2 (11732686_x_at) / Fold change /veh PIWIL2 (11732686_x_at) / RFU ORM1 (11744905_x_at) / Fold change /veh ORM1 (11744905_x_at) / RFU CCDC152 (11743942_at) / Fold change /veh CCDC152 (11743942_at) / RFU ECM1 (11717891_a_at) / Fold change /veh ECM1 (11717891_a_at) / RFU IL23R (11748794_a_at) / Fold change /veh IL23R (11748794_a_at) / RFU TNFAIP8L3 (11732012_x_at) / Fold change /veh TNFAIP8L3 (11732012_x_at) / RFU MBOAT4 (11741988_at) / Fold change /veh MBOAT4 (11741988_at) / RFU 11764193_at / Fold change /veh 11764193_at / RFU TMEM53 (11763286_at) / Fold change /veh TMEM53 (11763286_at) / RFU MAGEB2 (11727129_at) / Fold change /veh MAGEB2 (11727129_at) / RFU TMEM200A (11744735_a_at) / Fold change /veh TMEM200A (11744735_a_at) / RFU CCDC152 (11751479_a_at) / Fold change /veh CCDC152 (11751479_a_at) / RFU FAM211A (11726209_a_at) / Fold change /veh FAM211A (11726209_a_at) / RFU RGS16 (11746705_a_at) / Fold change /veh RGS16 (11746705_a_at) / RFU VCAN (11755009_s_at) / Fold change /veh VCAN (11755009_s_at) / RFU RHOB (11743442_s_at) / Fold change /veh RHOB (11743442_s_at) / RFU RGS16 (11720943_a_at) / Fold change /veh RGS16 (11720943_a_at) / RFU RGS16 (11720944_at) / Fold change /veh RGS16 (11720944_at) / RFU, VPS4B / Fold change vs veh, VPS4B / RFU, CREB1 / Fold change vs veh, CREB1 / RFU, DNAJC13 / Fold change vs veh, DNAJC13 / RFU, GNAQ / Fold change vs veh, GNAQ / RFU, CDK5R1 / Fold change vs veh, CDK5R1 / RFU, ZRANB3 / Fold change vs veh, ZRANB3 / RFU, CUL4A / Fold change vs veh, CUL4A / RFU, CCNY / Fold change vs veh, CCNY / RFU, UFL1 / Fold change vs veh, UFL1 / RFU, COG3 / Fold change vs veh, COG3 / RFU, DIAPH2 / Fold change vs veh, DIAPH2 / RFU, SKA2 / Fold change vs veh, SKA2 / RFU, AFF3 / Fold change vs veh, AFF3 / RFU, LMF1 / Fold change vs veh, LMF1 / RFU, IPO11 / Fold change vs veh, IPO11 / RFU, DFFB / Fold change vs veh, DFFB / RFU, FOXP1 / Fold change vs veh, FOXP1 / RFU, CARD8 / Fold change vs veh, CARD8 / RFU, STRN3 / Fold change vs veh, STRN3 / RFU, ADK / Fold change vs veh, ADK / RFU, RASSF2 / Fold change vs veh, RASSF2 / RFU, WIPF1 / Fold change vs veh, WIPF1 / RFU, LARP1B / Fold change vs veh, LARP1B / RFU, RASA1 / Fold change vs veh, RASA1 / RFU, RB1 / Fold change vs veh, RB1 / RFU, PPFIA1 / Fold change vs veh, PPFIA1 / RFU, MAT2A / Fold change vs veh, MAT2A / RFU, CCT5 / Fold change vs veh, CCT5 / RFU, WDR92 / Fold change vs veh, WDR92 / RFU, CUX1 / Fold change vs veh, CUX1 / RFU, TTC7A / Fold change vs veh, TTC7A / RFU, TMEM135 / Fold change vs veh, TMEM135 / RFU, DEPTOR / Fold change vs veh, DEPTOR / RFU, CPM / Fold change vs veh, CPM / RFU, DNAJB6 / Fold change vs veh, DNAJB6 / RFU, CACNA2D3 / Fold change vs veh, CACNA2D3 / RFU, DTX4 / Fold change vs veh, DTX4 / RFU, TFCP2 / Fold change vs veh, TFCP2 / RFU, GMCL1 /// GMCL1P1 / Fold change vs veh, GMCL1 /// GMCL1P1 / RFU, AEBP2 / Fold change vs veh, AEBP2 / RFU, SNHG1 /// SNORD22 /// SNORD25 /// SNORD26 /// SNORD27 /// SNORD28 /// SNORD29 /// SNORD31 / Fold change vs veh, SNHG1 /// SNORD22 /// SNORD25 /// SNORD26 /// SNORD27 /// SNORD28 /// SNORD29 /// SNORD31 / Fold change (Aza/veh), C12orf56 (ProbeSet 11735607_a_at) / Fold change (ACY-1035/veh), C12orf56 (ProbeSet 11735607_a_at) / Fold change (Aza/veh), FGFR1OP (ProbeSet 11751329_s_at) / Fold change (ACY-1035/veh), FGFR1OP (ProbeSet 11751329_s_at) / Fold change (Aza/veh), VPS36 (ProbeSet 11739960_a_at) / Fold change (ACY-1035/veh), VPS36 (ProbeSet 11739960_a_at) / RFU SYPL1 (11715823_x_at) / Fold change /veh SYPL1 (11715823_x_at) / RFU IGFBP7 (11715501_s_at) / Fold change /veh IGFBP7 (11715501_s_at) / RFU REEP3 (11722064_at) / Fold change /veh REEP3 (11722064_at) / RFU IGLL1 (11728026_x_at) / Fold change /veh IGLL1 (11728026_x_at): dose or concentration left out as unconfirmed. The conditions noted are these: MV-4-11 cells, 48 hours.

In the case of `Nc1ncn([C@@H]2O[C@H](CO)[C@@H](O)[C@H]2O)c(=O)n1` [azacitidine], the “RFU FAM26E (11764081_at)” value was 5.32 RFU.
